Measurements: article PMC9380671, “Development of spiro-3-indolin-2-one containing compounds of antiproliferative and anti-SARS-CoV-2 properties” (Scientific Reports, 2022)
Read-outs that look alike come from different tables or passages of the source.

Assays:
[1] = system: SARS-CoV-2 (hCoV-19/Egypt/NRC-03/2020); conditions: Vero-E6; cited from earlier work
VERO-E6 cells = conditions: cited from earlier work
[2] = system: MCF7 (breast) cancer cell line; assay: MTT antiproliferation, MCF7; format: cell-based, human; conditions: for IC50: Homo sapiens, MCF7, 72 h, read-out: IC50 (µM) ± SEM MCF7; for SI (selectivity index) MCF7: IC50 of RPE1/IC50 of cancer cell line
Procedure: (§1) Antiproliferation properties of the targeted agents were investigated by the standard MTT technique against diverse human cancer cell lines [MCF7 (breast), HCT116 (colon), A431 (skin squamous) and PaCa2 (pancreatic)][67] (Table 1, Supplementary Figs. S48‒S51).
(§2) Cells were seeded at concentration of 30000 cells per well in fresh complete growth medium in 96-well tissue culture microtiter plates for 24 h. […] 0.5% DMSO was used as negative control. Triplicate wells were prepared for each individual dose. After 72 h of incubation, medium was aspirated, 40 μl MTT salt (2.5 mg ml^-1) was added to each well and incubated for further 4 h at 37 °C. To stop the reaction and dissolve the formed crystals, 150 μl of 10% sodium dodecyl sulfate (SDS) in deionized water was added to each well and incubated overnight at 37 °C.
(§3) Data were collected as mean values for experiments performed in triplicates for each individual dose which had been measured by MTT assay. […] The cell surviving fraction was calculated according to the following equation.
(§4) Surviving fraction = OpticaldensityO.D.oftreatedcellsO.D.ofcontrolcells
(§5) Statistical calculations for determination of the mean and standard error mean values were determined by SPSS 16 software.

[3] = system: HCT116 (colon) cancer cell line; assay: MTT antiproliferation, HCT116; format: cell-based, human; conditions: for IC50: Homo sapiens, HCT-116, 72 h, read-out: IC50 (µM) ± SEM HCT116; for SI (selectivity index) HCT116: IC50 of RPE1/IC50 of cancer cell line
Procedure: as §1, §2, §3, §4, §5

[4] = system: A431 (skin squamous) cancer cell line; assay: MTT antiproliferation, A431; format: cell-based, human; conditions: for IC50: Homo sapiens; for SI (selectivity index) A431: IC50 of RPE1/IC50 of cancer cell line
Procedure: as §1, §2, §3, §4, §5

[5] = system: PaCa2 (pancreatic) cancer cell line; assay: MTT antiproliferation, PaCa-2; format: cell-based, human; conditions: for IC50: Homo sapiens, PaCa-2, 72 h, read-out: IC50 (µM) ± SEM PaCa-2; for SI (selectivity index) PaCa-2: IC50 of RPE1/IC50 of cancer cell line
Procedure: as §1
Cells were suspended in DMEM medium for MCF7, A431, PaCa-2 and McCoy’s 5A for HCT116 in addition to 1% antibiotic–antimycotic mixture (10000 μg ml^-1 potassium penicillin, 10000 μg ml^-1 streptomycin sulfate and 25 μg ml^-1 amphotericin B), 10% fetal bovine serum and 1% L-glutamine at 37 °C, under 5% CO2 and 95% humidity. Cells were seeded at concentration of 30000 cells per well in fresh complete growth medium in 96-well tissue culture microtiter plates for 24 h. Media was aspirated, fresh complete medium was added and cells were incubated with different concentrations of the tested compound to give a final concentration of [50, 25, 12.5 and 6.25 μM “in addition to 3.125, 1.56 and 0.78 μM in case of high potent analogues”). 0.5% DMSO was used as negative control. Triplicate wells were prepared for each individual dose. After 72 h of incubation, medium was aspirated, 40 μl MTT salt (2.5 mg ml^-1) was added to each well and incubated for further 4 h at 37 °C. To stop the reaction and dissolve the formed crystals, 150 μl of 10% sodium dodecyl sulfate (SDS) in deionized water was added to each well and incubated overnight at 37 °C. The absorbance was then measured at 570 nm and a reference wavelength of 595 nm.
as §3, §4
(§6) Statistical calculations for determination of the mean and standard error mean values were determined by SPSS 16 software. The observed anti-proliferative properties are presented in Table 1 (Supplementary Figs. S48‒S52).

[6] = system: RPE1 (normal human immortalized retinal pigment epithelial cell line); assay: MTT toxicity towards normal cells, RPE1; format: cell-based; conditions: RPE-1, read-out: IC50 (µM) ± SEM RPE1
Procedure: The safety of the synthesized agents against non-cancer/normal RPE1 (retinal pigment epithelium) cell line was assessed (Table 1, Supplementary Fig. S52). The SI (selectivity index) for the tested compounds against RPE1 cell line confirms the safety towards non-cancer cells. […] Compound 6d and 6h which are also of high anti-PaCa2 show remarkable SI values (SI = > 3.8, > 3.6, respectively).
The agents synthesized were also tested against RPE1 (normal human immortalized retinal pigment epithelial cell line) cell (in DMEM-F12 medium) to determine the toxicity/selectivity towards normal cells relative to the cancer cell lines utilized.
as §6

EGFR = molecular target: T1, EGFR (Homo sapiens, UniProt P00533); format: cell-based; conditions: western blot, MCF7, compound at its MTT IC50; for EGFR RQ (relative quantification): control RQ 3.4461
T1 construct: Western blot technique was considered for EGFR and VEGFR-2 properties determination; endogenous in cells; host or cells: MCF7 (breast cancer cell line)
Source text: (§7) The western blot technique was applied utilizing the IC50 observed for each respective agent synthesized during MTT assay[85],[86]. Consideration of multi-targeted inhibitory properties investigation is based in the fact that cancer initiation and proliferation sometimes utilizes many receptors or signaling pathways.
(§8) Western blot technique was considered for EGFR and VEGFR-2 properties determination utilizing the IC50 observed of each respective agent synthesized during MTT assay against MCF7 (breast) cancer cell line. All the studies were conducted according to the manufacturer’s instruction.^10,^11

VEGFR-2 = molecular target: T2, VEGFR-2 (Homo sapiens, UniProt P35968); format: cell-based; conditions: western blot, MCF7, compound at its MTT IC50; for VEGFR-2 RQ (relative quantification): control RQ 3.2634
T2 construct: Western blot technique was considered for EGFR and VEGFR-2 properties determination; endogenous in cells; host or cells: MCF7 (breast cancer cell line)
Source text: as §7, §8

[7] = system: SARS-CoV-2 (hCoV-19/Egypt/NRC-03/2020); assay: Vero-E6 cell viral infection model, anti-SARS-CoV-2 IC50 (CPE, crystal violet); format: cell-based; conditions: for IC50: Severe acute respiratory syndrome coronavirus 2, Vero C1008; for SI = CC50/IC50: Vero-E6, SARS-CoV-2
[8] = MTT cytotoxicity assay (CC50); format: cell-based; conditions: African green monkey, VERO-E6 cells
Procedure: The cytotoxic activity of the compounds was tested in VERO-E6 cells by using the 3-(4,5-dimethylthiazol-2-yl)-2,5-diphenyltetrazolium bromide (MTT) method with minor modifications. Briefly, the cells were seeded in 96 well-plates […] at a density of 3 x 10^5 cell/ml and incubated for 24 h at 37 °C in 5% CO2. After 24 h, cells were treated with various concentrated of the tested compounds in triplicates. 24 h later, the supernatant was discarded and cell monolayers were washed with sterile 1x phosphate buffer saline (PBS) 3 times and MTT solution (20 µl of 5 mg/ml) was added to each well and incubated at 37 °C for 4 h followed by medium aspiration. In each well, the formed formazan crystals were dissolved with 200 µl of acidified isopropanol (0.04 M HCl in absolute isopropanol = 0.073 ml HCl in 50 ml isopropanol). Eventually, the absorbance was measured at λmax 570 nm using the Anthos Zenyth 200rt plate reader (Anthos Labtec Instruments, Heerhugowaard, Netherlands). The cytotoxicity of various concentrations compared to the untreated cells was determined using nonlinear regression analysis by plotting log inhibitor versus normalized response.^12^-14

AChE = AChE (Homo sapiens, UniProt P22303); assay: AChE inhibition (DTNB, acetylthiocholine); format: biochemical; conditions: for IC50: read-out: AChE (IC50, μM) ± SD
Procedure: All compounds were dissolved in MeOH.

BChE = BChE (Homo sapiens, UniProt P06276); assay: BChE inhibition (DTNB, butyrylthiocholine iodide)
[9] = A-431, 72 h, read-out: IC50 (µM) ± SEM A431
[10] = A-431, read-out: Observed log(IC50, μM) (A431) (converted)
[11] = Vero-E6, 72 h, reduction of virus-induced CPE, read-out: IC50 (µM) SARS-CoV-2
[12] = log of observed IC50 in μM, read-out: Observed log(IC50, μM) (SARS-CoV-2) (converted)

T1 sequence (P00533 25-1210): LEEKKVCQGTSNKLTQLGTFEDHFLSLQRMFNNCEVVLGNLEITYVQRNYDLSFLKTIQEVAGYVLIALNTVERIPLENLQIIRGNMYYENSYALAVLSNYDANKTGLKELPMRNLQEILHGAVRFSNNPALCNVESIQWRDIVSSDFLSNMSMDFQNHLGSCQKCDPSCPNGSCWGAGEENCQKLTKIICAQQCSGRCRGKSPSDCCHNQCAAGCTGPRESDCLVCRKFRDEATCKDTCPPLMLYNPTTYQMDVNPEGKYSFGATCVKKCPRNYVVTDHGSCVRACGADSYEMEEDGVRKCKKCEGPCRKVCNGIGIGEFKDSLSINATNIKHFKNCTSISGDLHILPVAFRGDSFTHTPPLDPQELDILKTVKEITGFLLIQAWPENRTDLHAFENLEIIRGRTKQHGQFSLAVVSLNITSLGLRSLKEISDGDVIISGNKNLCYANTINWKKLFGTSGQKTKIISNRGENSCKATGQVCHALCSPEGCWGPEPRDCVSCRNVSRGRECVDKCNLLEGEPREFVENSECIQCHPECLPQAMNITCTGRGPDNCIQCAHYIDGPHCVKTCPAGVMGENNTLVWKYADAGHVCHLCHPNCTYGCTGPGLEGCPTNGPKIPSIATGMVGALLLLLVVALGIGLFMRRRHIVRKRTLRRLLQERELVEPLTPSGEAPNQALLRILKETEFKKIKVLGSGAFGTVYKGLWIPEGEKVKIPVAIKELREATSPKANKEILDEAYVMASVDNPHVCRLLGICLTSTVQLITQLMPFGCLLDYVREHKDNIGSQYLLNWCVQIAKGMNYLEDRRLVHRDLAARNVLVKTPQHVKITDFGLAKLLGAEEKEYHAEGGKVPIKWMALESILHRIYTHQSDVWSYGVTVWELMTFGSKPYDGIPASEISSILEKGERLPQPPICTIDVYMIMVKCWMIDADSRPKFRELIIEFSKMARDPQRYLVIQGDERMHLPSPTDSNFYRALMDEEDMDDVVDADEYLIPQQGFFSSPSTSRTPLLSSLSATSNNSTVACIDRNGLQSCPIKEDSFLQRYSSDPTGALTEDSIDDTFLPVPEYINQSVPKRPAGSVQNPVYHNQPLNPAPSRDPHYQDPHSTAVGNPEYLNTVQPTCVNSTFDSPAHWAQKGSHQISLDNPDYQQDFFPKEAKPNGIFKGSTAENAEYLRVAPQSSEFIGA
T2 sequence (P35968 20-1356): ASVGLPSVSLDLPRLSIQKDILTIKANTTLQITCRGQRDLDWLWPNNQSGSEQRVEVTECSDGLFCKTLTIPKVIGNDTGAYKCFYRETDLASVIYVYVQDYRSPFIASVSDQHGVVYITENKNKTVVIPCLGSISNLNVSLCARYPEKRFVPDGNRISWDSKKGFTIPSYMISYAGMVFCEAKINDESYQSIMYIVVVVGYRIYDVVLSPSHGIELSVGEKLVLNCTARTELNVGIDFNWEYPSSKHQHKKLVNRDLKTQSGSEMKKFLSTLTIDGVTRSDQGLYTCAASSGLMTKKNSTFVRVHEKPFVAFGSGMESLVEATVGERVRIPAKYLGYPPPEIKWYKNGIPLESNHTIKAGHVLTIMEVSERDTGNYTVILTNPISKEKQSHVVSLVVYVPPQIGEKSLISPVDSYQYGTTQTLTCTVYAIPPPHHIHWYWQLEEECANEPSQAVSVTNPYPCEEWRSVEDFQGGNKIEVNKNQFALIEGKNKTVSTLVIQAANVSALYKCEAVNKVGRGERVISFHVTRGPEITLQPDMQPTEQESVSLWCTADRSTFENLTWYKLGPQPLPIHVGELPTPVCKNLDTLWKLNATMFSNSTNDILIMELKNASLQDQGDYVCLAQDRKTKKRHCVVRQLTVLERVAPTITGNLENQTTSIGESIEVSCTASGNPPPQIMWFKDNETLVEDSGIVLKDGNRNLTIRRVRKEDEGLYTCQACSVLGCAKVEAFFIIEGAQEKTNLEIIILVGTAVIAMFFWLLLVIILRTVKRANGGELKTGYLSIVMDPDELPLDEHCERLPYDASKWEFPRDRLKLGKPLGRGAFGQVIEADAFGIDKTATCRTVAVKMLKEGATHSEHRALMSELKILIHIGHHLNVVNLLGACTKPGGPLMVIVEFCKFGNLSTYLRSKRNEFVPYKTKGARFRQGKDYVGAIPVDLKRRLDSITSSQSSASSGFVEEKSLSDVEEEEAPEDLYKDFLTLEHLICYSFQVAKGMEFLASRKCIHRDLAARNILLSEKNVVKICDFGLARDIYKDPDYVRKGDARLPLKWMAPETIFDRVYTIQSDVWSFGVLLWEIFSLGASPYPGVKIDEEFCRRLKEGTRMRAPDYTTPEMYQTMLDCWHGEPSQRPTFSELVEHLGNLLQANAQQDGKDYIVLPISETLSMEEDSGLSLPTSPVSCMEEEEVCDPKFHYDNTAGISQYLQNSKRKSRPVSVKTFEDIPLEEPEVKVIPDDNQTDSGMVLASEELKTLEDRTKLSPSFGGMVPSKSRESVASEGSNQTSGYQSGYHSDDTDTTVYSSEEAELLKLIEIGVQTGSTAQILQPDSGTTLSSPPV
Chain of AChE (P22303 32-614): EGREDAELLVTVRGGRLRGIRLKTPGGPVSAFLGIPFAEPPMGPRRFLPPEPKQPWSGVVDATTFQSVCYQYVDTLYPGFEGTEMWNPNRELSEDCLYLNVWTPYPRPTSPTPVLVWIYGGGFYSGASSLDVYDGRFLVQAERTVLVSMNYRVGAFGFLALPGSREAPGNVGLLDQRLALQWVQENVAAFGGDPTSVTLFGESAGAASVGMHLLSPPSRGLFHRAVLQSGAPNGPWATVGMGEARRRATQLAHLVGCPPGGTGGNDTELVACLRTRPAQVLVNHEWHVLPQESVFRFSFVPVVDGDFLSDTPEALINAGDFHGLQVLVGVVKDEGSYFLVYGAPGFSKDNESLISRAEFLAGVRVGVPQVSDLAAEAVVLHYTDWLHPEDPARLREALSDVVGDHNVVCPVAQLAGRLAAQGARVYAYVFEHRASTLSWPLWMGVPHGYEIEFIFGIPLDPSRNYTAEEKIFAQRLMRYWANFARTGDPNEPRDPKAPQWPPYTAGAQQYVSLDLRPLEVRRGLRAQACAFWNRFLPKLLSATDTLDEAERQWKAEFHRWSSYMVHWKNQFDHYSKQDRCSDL
Chain of BChE (P06276 29-602, species assumed): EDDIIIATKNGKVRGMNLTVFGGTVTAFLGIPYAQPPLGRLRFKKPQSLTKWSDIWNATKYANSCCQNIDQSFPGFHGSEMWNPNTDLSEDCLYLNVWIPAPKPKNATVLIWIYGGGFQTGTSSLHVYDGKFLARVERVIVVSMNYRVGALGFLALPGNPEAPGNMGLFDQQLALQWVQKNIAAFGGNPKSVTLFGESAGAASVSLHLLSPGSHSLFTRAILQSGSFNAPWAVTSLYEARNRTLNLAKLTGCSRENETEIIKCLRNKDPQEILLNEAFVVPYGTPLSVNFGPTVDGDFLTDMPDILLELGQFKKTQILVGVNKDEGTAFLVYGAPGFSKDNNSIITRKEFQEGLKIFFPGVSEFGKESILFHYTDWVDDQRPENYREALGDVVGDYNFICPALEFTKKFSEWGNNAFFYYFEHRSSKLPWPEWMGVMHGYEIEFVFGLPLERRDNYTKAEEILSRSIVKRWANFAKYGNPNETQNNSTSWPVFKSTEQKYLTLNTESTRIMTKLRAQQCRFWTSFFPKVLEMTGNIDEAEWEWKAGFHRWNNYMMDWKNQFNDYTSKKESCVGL

Row | SMILES | IC50 [1] [µM] | IC50 [2] [µM] | SI (selectivity index) MCF7 [2] | IC50 [3] [µM] | SI (selectivity index) HCT116 [3] | IC50 [4, 9] [µM] | IC50 [4, 10] [µM] | SI (selectivity index) A431 [4] | IC50 [5] [µM] | IC50 [6] [µM] | EGFR % Inhibition (EGFR) [%] | EGFR RQ (relative quantification) (EGFR) | VEGFR-2 % Inhibition (VEGFR-2) [%] | VEGFR-2 RQ (relative quantification) (VEGFR-2) | IC50 [7, 11] [µM] | IC50 [7, 12] [µM] | SI = CC50/IC50 [7] | CC50 at 24 h [8] [µM] | SI = IC50 (AChE)/IC50 (BChE) (AChE) | IC50 (AChE) [µM] | other results
1 | NC(=O)c1nc(F)c[nH]c1=O [Favipiravir] | 1380 |  |  |  |  |  |  |  |  |  |  |  |  |  |  |  |  |  |  |  | SI = CC50/IC50 [1]: 3.8; CC50 (VERO-E6 cells): 5260 µM
2 | CCN(CCO)CCCC(C)Nc1ccnc2cc(Cl)ccc12 (stereo not drawn) [Hydroxychloroquine] | 36.9 |  |  |  |  |  |  |  |  |  |  |  |  |  |  |  |  |  |  |  | SI = CC50/IC50 [1]: 9.7; CC50 (VERO-E6 cells): 356 µM
3 | COc1ccc(/C=C2\CN(S(C)(=O)=O)CC3(C2=O)C(c2ccc(OC)c(OC)c2)CN(C)C32C(=O)Nc3ccc(Cl)cc32)cc1OC (stereo not drawn) [Compound 6o, (E)-5-Chloro-5″-(3,4-dimethoxybenzylidene)-4′-(3,4-dimethoxyphenyl)-1′-methyl-1″-(methylsulfonyl)dispiro[indoline-3,2′-pyrrolidine-3′,3″-piperidine]-2,4″-dione] |  | 48.9 ± 1.84 | > 1.0 | 28.5 ± 0.75 | > 1.8 | 45.4 ± 1.84 | 45.4 | > 1.1 | > 50 | > 50 | 65.9 | 1.175 | 61.8 | 1.2473 | 88.2 | 88.2 | 2.2 | 196 | 1.1 | 27 ± 6.7 | IC50 (BChE): 24.9 ± 4.6 µM
4 | CN1CC(c2ccccc2)C2(CN(S(C)(=O)=O)C/C(=C\c3ccccc3)C2=O)C12C(=O)Nc1ccc(Cl)cc12 (stereo not drawn) [Compound 6b, (E)-5″-Benzylidene-5-chloro-1′-methyl-1″-(methylsulfonyl)-4′-phenyldispiro[indoline-3,2′-pyrrolidine-3′,3″-piperidine]-2,4″-dione] |  | 7.66 ± 0.68 | 3.2 | 6.92 ± 0.52 | 3.6 | 9.15 ± 0.7 | 9.15 | 2.7 | 20.6 ± 1.17 | 24.7 ± 1.26 | 54.1 | 1.5804 | 64.2 | 1.167 | 9.63 | 9.63 | 132.0 | 1270 | 0.9 | 27.7 ± 5.45 | SI (selectivity index) PaCa-2 [5]: 1.2; IC50 (BChE): 29.2 ± 3.62 µM
5 | CN1CC(c2ccc(Cl)cc2)C2(CN(S(C)(=O)=O)C/C(=C\c3ccc(Cl)cc3)C2=O)C12C(=O)Nc1ccc(Cl)cc12 (stereo not drawn) [Compound 6j, (E)-5-Chloro-5″-(4-chlorobenzylidene)-4′-(4-chlorophenyl)-1′-methyl-1″-(methylsulfonyl)dispiro[indoline-3,2′-pyrrolidine-3′,3″-piperidine]-2,4″-dione] |  | 4.51 ± 0.39 | 2.8 | 4.72 ± 0.25 | 2.6 | 4.08 ± 0.21 | 4.08 | 3.1 | 8.83 ± 0.51 | 12.5 ± 0.86 | 63.3 | 1.2634 | 57.9 | 1.3745 | 27.1 | 27.1 | 7.4 | 201 | 1.9 | 42.8 ± 4.61 | SI (selectivity index) PaCa-2 [5]: 1.4; IC50 (BChE): 22.3 ± 3.33 µM
6 | CCN(CC)CCCC(C)Nc1ccnc2cc(Cl)ccc12 (stereo not drawn) [Chloroquine] | 25 |  |  |  |  |  |  |  |  |  |  |  |  |  |  |  |  |  |  |  | 
